Measurements: patent US20090227601A1, “Bradykinin 1 Receptor Antagonists” (Amgen Inc., priority 2005, published 2009)

These compounds were tested against T1, hB2 receptor (Homo sapiens, UniProt P30411) (assay: In vitro Assay of hB2 Receptor Function using Calcium Flux). Conditions: recombinant CHO cells, antagonist IC50 against agonist at EC80.
T1 construct: host or cells: CHO-K1
T1 sequence (P30411 1-391): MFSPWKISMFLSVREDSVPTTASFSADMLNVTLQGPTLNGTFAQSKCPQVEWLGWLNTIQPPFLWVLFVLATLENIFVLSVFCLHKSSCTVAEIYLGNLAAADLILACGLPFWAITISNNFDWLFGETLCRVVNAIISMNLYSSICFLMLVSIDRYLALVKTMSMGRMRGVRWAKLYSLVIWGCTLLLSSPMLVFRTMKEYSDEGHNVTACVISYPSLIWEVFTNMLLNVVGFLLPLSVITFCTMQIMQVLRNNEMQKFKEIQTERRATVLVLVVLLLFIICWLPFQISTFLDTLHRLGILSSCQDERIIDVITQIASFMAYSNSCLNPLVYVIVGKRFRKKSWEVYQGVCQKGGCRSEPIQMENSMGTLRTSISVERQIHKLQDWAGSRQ
Type: cell-based
Experimental: In vitro Assay of hB2 Receptor Function using Calcium Flux The intracellular calcium flux induced by hB2 receptor activation was analyzed using an hB2 recombinant cell line (CHO-K1) purchased from PerkinElmer (Catalog Number: RBHB2C000EA) on a fluorometric imaging plate reader (FLIPR). […] Culture medium was changed every other day. 24 h prior to the FLIPR assay, the hB2/CHO cells were washed once with PBS (Invitrogen) and 10 mL of Versene (1:5000, Invitrogen, Cat# 15040-066) was added to each flask. After 5 min incubation at 37° C., Versene was removed and cells were detached from the flask and resuspended in culture medium. Cells were counted and 25,000 cells/well were plated in 96-well black-sided clear bottom assay plates (Costar #3904). Cells were incubated in a 37° C. CO2 incubator overnight. The media was aspirated from the cells and replaced with 65 μL of dye-loading buffer. The loading buffer was prepared by diluting a stock solution of 0.5 mM Fluo-4 AM (Molecular Probes, dissolved in DMSO containing 10% [w/v] pluronic acid) to a concentration of 1 μM in Clear Dulbecco's Modified Eagle Medium (DMEM) containing 0.1% BSA, 20 mM HEPES, and 2.5 mM probenecid. The cells were dye-loaded for 1 h at RT. The excess dye was removed by washing the cells 2× with assay buffer. The assay buffer consists of Hank's Balanced Salt Solution (HBSS) containing 20 mM HEPES, 0.1% BSA, and 2.5 mM probenecid. After the wash cycles, a volume of 100 μL was left in each well, and the plate was ready to be assayed in the FLIPR System. […] The cell plate and the compound plates were loaded onto the FLIPR and during the assay, fluorescence readings are taken simultaneously from all 96 wells of the cell plate. Ten 1-second readings were taken to establish a stable baseline for each well, then 25 μL from the B1 antagonist plate was rapidly (50 μL/sec.) added. The fluorescence signal was measured in 1-second (1 min) followed by 6-second (2 min) intervals for a total of 3 min to determine if there is any agonist activity with the compounds.

IC50 [nM] | SMILES
2 | Cc1ccc(S(=O)(=O)N2C=CNC(=O)[C@H]2CC(=O)NC2CCC(N3CCCC(F)C3)CC2(C)C)cc1 (stereo partly drawn) [T-1-41, N-(4-(3-fluoro-1-piperidinyl)-2,2-dimethylcyclohexyl)-2-((2R)-1-((4-methyl-phenyl)sulfonyl)-3-oxo-1,2,3,4-tetrahydro-2-pyrazinyl)acetamide]
47 | Cc1ccc(S(=O)(=O)N2C=CNC(=O)[C@H]2CC(=O)N[C@H]2CC[C@@H](N)CC2)cc1 [T-1-31, N-(cis-4-aminocyclohexyl)-2-((2R)-1-((4-methylphenyl)sulfonyl)-3-oxo-1,2,3,4-tetrahydro-2-pyrazinyl)acetamide]
61 | Cc1cc(S(=O)(=O)N2C=CNC(=O)[C@H]2CC(=O)N2CCC(N3CCCC3)C(C)(C)C2)c(C)cc1Cl (mixture of isomers) [T-3-30, (3R)-4-((4-chloro-2,5-dimethylphenyl)sulfonyl)-3-(2-((4R/S)-3,3-dimethyl-4-(1-pyrrolidinyl)-1-piperidinyl)-2-oxoethyl)-3,4-dihydro-2(1H)-pyrazinone]
5.1 | Cc1cc(S(=O)(=O)N2C=CNC(=O)[C@H]2CC(=O)N2CCC3(CCN(C4CC4)C3)C2)c(C)cc1Cl (stereo partly drawn) [T-3-38, (3R)-4-((4-chloro-2,5-dimethylphenyl)sulfonyl)-3-(2-(7-cyclopropyl-2,7-diazaspiro[4.4]non-2-yl)-2-oxoethyl)-3,4-dihydro-2(1H)-pyrazinone]
2700 | Cc1ccc(S(=O)(=O)N2C=CNC(=O)[C@H]2CC(=O)N[C@@H]2CCCC[C@H]2C(C)(C)O)cc1 (mixture of isomers) [T-1-65, N-((1RS,2RS)-2-(1-hydroxy-1-methylethyl)cyclohexyl)-2-((2R)-1-((4-methylphenyl)sulfonyl)-3-oxo-1,2,3,4-tetrahydro-2-pyrazinyl)acetamide]
160 | Cc1cc(S(=O)(=O)N2C=CNC(=O)[C@H]2CC(=O)N2CCC(CN3CCCC3)CC2)c(C)cc1Cl [T-3-18, (3R)-4-((4-chloro-2,5-dimethylphenyl)sulfonyl)-3-(2-oxo-2-(4-(1-pyrrolidinylmethyl)-1-piperidinyl)ethyl)-3,4-dihydro-2(1H)-pyrazinone]
1 | COCCN1CC[C@@H](NC(=O)C[C@@H]2C(=O)NC=CN2S(=O)(=O)c2ccc(C)cc2)C(C)(C)C1 [T-1-120, N-((4R)-3,3-dimethyl-1-(2-(methyloxy)ethyl)-4-piperidinyl)-2-((2R)-1-((4-methylphenyl)sulfonyl)-3-oxo-1,2,3,4-tetrahydro-2-pyrazinyl)acetamide]
20 | Cc1ccc(S(=O)(=O)N2C=CNC(=O)[C@H]2CC(=O)NC2CC(C)(C)N(C)C(C)(C)C2)cc1 [T-1-77, 2-((2R)-1-((4-methylphenyl)sulfonyl)-3-oxo-1,2,3,4-tetrahydro-2-pyrazinyl)-N-(1,2,2,6,6-pentamethyl-4-piperidinyl)acetamide]
1600 | Cc1ccc(C2CCN(C(=O)C[C@@H]3C(=O)NC=CN3S(=O)(=O)c3ccc(C)cc3)CC2)cc1 [T-3-48, (3R)-3-(2-(4-(4-methylphenyl)-1-piperidinyl)-2-oxoethyl)-4-((4-methylphenyl)-sulfonyl)-3,4-dihydro-2(1H)-pyrazinone]
270 | Cc1cc(S(=O)(=O)N2C=CNC(=O)[C@H]2CC(=O)N2CCC(N3CCCCC3)CC2)c(C)cc1Cl [T-3-8, (3R)-3-(2-(1,4′-bipiperidin-1′-yl)-2-oxoethyl)-4-((4-chloro-2,5-dimethylphenyl)-sulfonyl)-3,4-dihydro-2(1H)-pyrazinone]
390 | COc1ccc(CC2CCCN2C(=O)C[C@@H]2C(=O)NC=CN2S(=O)(=O)c2ccc(C)cc2)cc1 (stereo partly drawn) [T-3-47, (3R)-3-(2-(2-RS-((4-(methyloxy)phenyl)methyl)-1-pyrrolidinyl)-2-oxoethyl)-4-((4-methylphenyl)sulfonyl)-3,4-dihydro-2(1H)-pyrazinone]
15 | Cc1cc(S(=O)(=O)N2C=CNC(=O)[C@H]2CC(=O)N2CCC3(CCNC3)C2)c(C)cc1Cl (stereo partly drawn) [T-3-26, (3R)-4-((4-chloro-2,5-dimethylphenyl)sulfonyl)-3-(2-(2,7-diazaspiro[4.4]non-2-yl)-2-oxoethyl)-3,4-dihydro-2(1H)-pyrazinone]
1000 | Cc1ccc(S(=O)(=O)N2C=CNC(=O)[C@H]2CC(=O)N2CCCC2c2ccc(Cl)cc2)cc1 (stereo partly drawn) [T-3-3, (3R)-3-(2-(2-(4-chlorophenyl)-1-pyrrolidinyl)-2-oxoethyl)-4-((4-methylphenyl)-sulfonyl)-3,4-dihydro-2(1H)-pyrazinone]
420 | Cc1ccc(S(=O)(=O)N2C=CNC(=O)[C@H]2CC(=O)N[C@H]2CC[C@@H](NC(C)C)CC2)cc1 [T-1-35, N-(cis-4-((1-methylethyl)amino)cyclohexyl)-2-((2R)-1-((4-methylphenyl)sulfonyl)-3-oxo-1,2,3,4-tetrahydro-2-pyrazinyl)acetamide]
130 | COc1ccc(C2CN(C(=O)C[C@@H]3C(=O)NC=CN3S(=O)(=O)c3ccc(C)cc3)CCS2)cc1 (stereo partly drawn) [T-3-2, (3R)-3-(2-(2-(4-(methyloxy)phenyl)-4-thiomorpholinyl)-2-oxoethyl)-4-((4-methyl-phenyl)sulfonyl)-3,4-dihydro-2(1H)-pyrazinone]
> 4000 | Cc1ccc(S(=O)(=O)N2C=CNC(=O)[C@H]2CC(=O)N2CCC(NC(=O)c3ccccc3)CC2)cc1 [T-3-40, N-(1-(2-((2R)-1-((4-methylphenyl)sulfonyl)-3-oxo-1,2,3,4-tetrahydro-2-pyrazinyl)acetyl)-4-piperidinyl)benzamide]
1.21 | Cc1ccc(S(=O)(=O)N2C=CNC(=O)[C@H]2CC(=O)NC2CCN(Cc3ccncc3)CC2(C)C)cc1 (mixture of isomers) [T-1-25, N-((4R)-3,3-dimethyl-1-(4-pyridinylmethyl)-4-piperidinyl)-2-((2R)-1-((4-methylphenyl)sulfonyl)-3-oxo-1,2,3,4-tetrahydro-2-pyrazinyl)acetamide; and N-((4S)-3,3-dimethyl-1-(4-pyridinylmethyl)-4-piperidinyl)-2-((2R)-1-((4-methyl-phenyl)sulfonyl)-3-oxo-1,2,3,4-tetrahydro-2-pyrazinyl)acetamide]
200 | Cc1ccc(S(=O)(=O)N2C=CNC(=O)[C@H]2CC(=O)NC2CCCCC2C2CCCCC2)cc1 (stereo partly drawn) [T-1-40, N-1,1′-bi(cyclohexyl)-2-yl-2-((2R)-1-((4-methylphenyl)sulfonyl)-3-oxo-1,2,3,4-tetrahydro-2-pyrazinyl)acetamide]
3 | Cc1ccc(S(=O)(=O)N2C=CNC(=O)[C@H]2CC(=O)N(C)C2CCN(C)CC2)cc1 [T-2-1, 2-((2R)-1-((4-methylphenyl)sulfonyl)-3-oxo-1,2,3,4-tetrahydro-2-pyrazinyl)-N-methyl-N-(1-methyl-4-piperidinyl)acetamide]
940 | Cc1cc(S(=O)(=O)N2C=CNC(=O)[C@H]2CC(=O)N2CCC(CO)CC2)c(C)cc1Cl [T-3-15, (3R)-4-((4-chloro-2,5-dimethylphenyl)sulfonyl)-3-(2-(4-(hydroxymethyl)-1-piperidinyl)-2-oxoethyl)-3,4-dihydro-2(1H)-pyrazinone]
700 | Cc1ccc(S(=O)(=O)N2C=CNC(=O)[C@H]2CC(=O)NC2CCN(c3ncccn3)CC2)cc1 [T-1-7, 2-((2R)-1-((4-methylphenyl)sulfonyl)-3-oxo-1,2,3,4-tetrahydro-2-pyrazinyl)-N-(1-(2-pyrimidinyl)-4-piperidinyl)acetamide]
1.4 | Cc1ccc(S(=O)(=O)N2C=CNC(=O)[C@H]2CC(=O)NC2CCC3(CC2(C)C)OCCO3)cc1 (mixture of isomers) [T-1-111, N-((8RS)-7,7-dimethyl-1,4-dioxaspiro[4.5]dec-8-yl)-2-((2R)-1-((4-methylphenyl)-sulfonyl)-3-oxo-1,2,3,4-tetrahydro-2-pyrazinyl)acetamide]

SMILES | IC50 [nM]
Cc1ccc(S(=O)(=O)N2C=CNC(=O)[C@H]2CC(=O)NC2CC3CCC(C2)N3C)cc1 (stereo partly drawn) [T-1-34, N-((3-endo)-8-methyl-8-azabicyclo[3.2.1]oct-3-yl)-2-((2R)-1-((4-methylphenyl)-sulfonyl)-3-oxo-1,2,3,4-tetrahydro-2-pyrazinyl)acetamide; and N-((3-exo)-8-methyl-8-azabicyclo[3.2.1]oct-3-yl)-2-((2R)-1-((4-methylphenyl)-sulfonyl)-3-oxo-1,2,3,4-tetrahydro-2-pyrazinyl)acetamide] | 140
